{
  "source": "paper PMC10823468",
  "about": "“Design, Synthesis, and Evaluation of New 1H-Benzo[d]imidazole Based PqsR Inhibitors as Adjuvant Therapy for Pseudomonas aeruginosa Infections” (Journal of Medicinal Chemistry, 2024)",
  "key": {"[1]": {"system": "AQ production in P. aeruginosa laboratory strains and CF isolates", "experiment": "Alkyl quinolone (AQ: HHQ, PQS, HQNO) quantification by LC-MS/MS", "assay_type": "cell-based, Pseudomonas aeruginosa", "excerpt": "PqsR directly regulates the biosynthesis of diverse AQs, of which HHQ and PQS act as QS molecules, while others such as 2-heptyl- 4-hydroxyquinoline N-oxide (HQNO) are potent cytochrome bc1 inhibitors that contribute to the environmental competitiveness of this pathogen.[9],[28] Previous studies have shown that PQS is a multifunctional iron chelator acting via PqsR-dependent and PqsR-independent pathways, contributing directly to iron acquisition and microvesicle formation.[29] […] PqsR inhibition reduces production of AQ, which can be quantified to serve as a direct readout for pqs system inhibition.[9] To this end, 6f was incubated with various P. aeruginosa laboratory strains and CF isolates and its impact on AQ production determined quantitatively using LCMS/MS and compared with untreated samples.\nFor each test sample, 100 μL of sterile filtered supernatant was spiked with 10 μL of an internal standard solution (10 μM d4-PQS in MeOH) and diluted with water to a total volume of 500 μL. Samples were then extracted three times with an 0.5 mL aliquot of ethyl acetate, vortex mixing the aqueous/organic mix for 2 min, then removing the organic phase once the layers had successfully partitioned. For each sample, the combined organic extracts were dried under vacuum and redissolved in 100 μL of MeOH prior to analysis. For the LC-MS/MS analysis of supernatant extracts, the chromatography was achieved using a Shimadzu series 10AD VP LC system (Columbia, MD, USA). The LC column, maintained at 40 °C, was a Phenomenex Gemini C18 (3.0 μm, 100 mm × 3.0 mm) (Macclesfield, Cheshire, UK) with an appropriate guard column. Mobile phase A was 0.1% (v/v) formic acid in water containing 2 mM 2-picolinic acid, and mobile phase B 0.1% (v/v) formic acid in methanol. The flow rate throughout the chromatographic separation was 450 μL/min. After an injection of a 2 μL/sample, a binary gradient, beginning initially at 30% B, increased linearly to 99% B over 5 min. The composition remained at 99% B for 3 min, decreased to 30% B over 1 min, and stayed at this composition for 4 min, to allow for column equilibration. The MS system used for analyte detection was an Applied Biosystems Qtrap 4000 hybrid triple-quadrupole linear ion trap mass spectrometer (Foster City, CA, USA), equipped with an electrospray ionization (ESI) interface. Instrument control, data collection, and analysis were conducted using Analyst software (Foster City, CA, USA). […] Where chromatographic peaks for HHQ, HQNO, and PQS were detected, a peak area was determined, and analyte peak area/internal standard peak area calcdulated."}, "[2]": {"system": "pyocyanin production in P. aeruginosa", "experiment": "Pyocyanin quantification", "assay_type": "cell-based, Pseudomonas aeruginosa", "conditions": "for pyocyanin production: 6f 200 nM", "experimental": "This assay was extended further to investigate the effect of 6f on pyocyanin production in different P. aeruginosa at 6f concentration of 200 nM (Figure 5b).\nThe experiment was performed following a published protocol with minor modifications. Strains were cultured into 5 mL of fresh medium overnight. […] Cells were centrifuged at 10 000 RCF for 10 min (Allegra 64R centrifuge, Beckman Coulter, High Wycombe, UK), and the supernatant was transferred to 15 mL falcon tubes with a HSW 10 mL Soft-Ject Syringe and a […] Sartorius syringe-driven filter (Fisher Brand, Loughborough, UK). Pyocyanin pigment was extracted into chloroform by mixing 7.5 mL of supernatant with 4.5 mL of chloroform. Pyocyanin was further extracted into 1.5 mL of 0.2 M HCL, which gave a pink/red solution, and the absorbance was measured at 520 nm.[47]"}, "PAO1-L biofilms": {"system": "PAO1-L biofilms", "experiment": "Biofilm viability assay, method 1 (ciprofloxacin, LIVE/DEAD, CLSM)", "assay_type": "cell-based, Pseudomonas aeruginosa", "conditions": "6 and 24 h", "experimental": "Biofilms are bacterial communities that are highly tolerant to antibiotics.[33] […] Therefore, pharmacological interference with the pqs machinery could sensitize PA biofilms to antibiotics.[34] To evaluate this effect, PAO1-L biofilms were grown for […] in the presence of 6f (method 1). Following treatment with the broad-spectrum antibiotic ciprofloxacin (Cip), the viability of biofilm bacteria was determined using LIVE/DEAD BacLight staining and confocal laser scanning microscopy (CLSM). The effect of 6f on biofilm viability as a single treatment or in combination with subinhibitory concentration of Cip was examined at two different time points (6 and 24 h after treatment) to establish whether this PqsR antagonist enhanced the activity of the antibiotic. […] It is noteworthy that the effect was greater at 6 h treatment compared with 24 h.\nFigure 6 (A) Representative CLSM 3D Z-stack images of PAO1-L biofilms after 24 h growth with or without 6f and further treatment for 6 or 24 h with no treatment (control), 6f (10 μM), ciprofloxacin (Cip: 60 μg/mL), or a combination of 6f and Cip (10 μM and 60 μg/mL, respectively). Live bacteria are depicted in green (SYTO9 dye) and dead cells are shown in red color (propidium iodide stain). (B) Biofilm viability assay. Bar chart showing PAO1-L biofilm viability quantified after treatment with different conditions for 6 or 24 h. […]"}, "[3]": {"set-up": "method as in PMID 33073099", "conditions": "human microsomes; cited from earlier work"}},
  "data": [
    {"molecule": "CC(C)n1c(NCC(O)COc2ccc(CC#N)cc2)nc2ccc(Cl)cc21", "note": "(centres unmarked) [Compound 6f, 2-(4-(3-((6-Chloro-1-isopropyl-1H-benzo[d]imidazol-2-yl)amino)-2-hydroxypropoxy)phenyl) Acetonitrile]", "values": [
      {"measurement": "HHQ and PQS levels", "setting": "[1]; 0.2 μM 6f, IPCD1331", "value": "no significant reduction"},
      {"measurement": "HQNO concentrations", "setting": "[1]; 0.2 μM 6f, IPCD1451 CF isolate", "value": "nonsignificant reduction"},
      {"measurement": "AQ production", "setting": "[1]; 0.2 μM 6f, LESB58 strain", "value": "moderate but significant reduction"},
      {"measurement": "HHQ and PQS levels", "setting": "[1]; 0.2 μM 6f, PAO1-L, PA14 and IPCD48 CF isolate, vs untreated", "value": "substantially reduced"},
      {"measurement": "inhibition at 0.2 µM", "setting": "[1]; Pseudomonas aeruginosa, read-out: HQNO inhibition", "value": "20 to 60", "unit": "%"},
      {"measurement": "pyocyanin production", "setting": "[2]; IPCD1451", "value": "nonsignificant inhibition"},
      {"measurement": "pyocyanin production", "setting": "[2]; all strains except IPCD1451", "value": "inhibited pyocyanin production"},
      {"measurement": "inhibition of pyocyanin production", "setting": "[2]; PAO1-L, concentration three times the IC50, relative to DMSO", "value": "~80", "unit": "%"},
      {"measurement": "biofilm viability, combination with ciprofloxacin", "setting": "PAO1-L biofilms; 6f 10 μM + Cip 60 μg/mL", "value": "significant potentiation of antibiotic activity"},
      {"measurement": "biofilm viability, single treatment", "setting": "PAO1-L biofilms; 6f 10 μM alone", "value": "no significant effect"},
      {"measurement": "half-life", "setting": "[3]", "value": "relatively short"}
    ]}
  ]
}
